# Data taken from publication PMC10022577 (Chem, 2023).
# Biological target: T1, AlbS (albireticulene synthase) (Streptomyces albireticuli, UniProt A0A2A2D8W5)
# T1 sequence (A0A2A2D8W5 1-369): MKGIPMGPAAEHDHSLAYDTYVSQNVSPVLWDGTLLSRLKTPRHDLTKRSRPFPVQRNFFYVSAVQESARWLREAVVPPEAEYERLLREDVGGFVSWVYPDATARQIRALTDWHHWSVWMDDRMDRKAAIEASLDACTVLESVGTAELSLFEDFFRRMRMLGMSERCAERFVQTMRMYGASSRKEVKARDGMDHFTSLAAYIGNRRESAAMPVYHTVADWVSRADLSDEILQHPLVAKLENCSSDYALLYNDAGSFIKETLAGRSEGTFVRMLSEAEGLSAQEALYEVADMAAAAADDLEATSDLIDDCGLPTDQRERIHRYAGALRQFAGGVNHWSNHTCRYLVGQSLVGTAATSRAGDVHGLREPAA
# Assay: GC-MS product analysis
# Format: biochemical
# Details: products: five sesquiterpenes (3-7)
smiles,measurement,value
CC(C)=CCC/C(C)=C/CC/C(C)=C/COP(=O)(O)OP(=O)(O)O [FPP],GC-MS product analysis,GC-MS analysis revealed that FPP was converted into five sesquiterpenes
